Where a name gives a salt, the structure may show the parent alone.
Key:
hMMP-9 = hMMP-9 (Homo sapiens, UniProt P14780); assay: In vitro metalloprotease inhibition, fluorogenic MCA peptide substrate; type: biochemical; conditions: room temperature, pH 7.5
Method: (§1) The compounds prepared in the manner described in Examples 1 to 15 were assayed for activity by an in vitro assay. Following the procedures of Knight et al., FEBS Lett. 296(3):263 (1992). Briefly, 4-aminophenylmercuric acetate (APMA) or trypsin activated MMPs were incubated with various concentrations of the inhibitor compound at room temperature for 5 minutes.
(§2) The enzyme substrate is a methoxycoumarin-containing polypeptide having the following sequence:
(§3) MCA-ProLeuGlyLeuDpaAlaArgNH^2, wherein MCA is methoxycoumarin and Dpa is 3-(2,4-dinitrophenyl)-L-2,3-diaminopropionyl alanine. This substrate is commercially available from Baychem as product M-1895.
(§4) The buffer used for assays contained 100 mM Tris-HCl, 100 mM NaCl, 10 mM CaCl2 and 0.05 percent polyethyleneglycol (23) lauryl ether at a pH value of 7.5. Assays were carried out at room temperature, and dimethyl sulfoxide (DMSO) at a final concentration of 1 percent was used to dissolve inhibitor compound.
(§5) The assayed inhibitor compound in DMSO/buffer solution was compared to an equal amount of DMSO/buffer with no inhibitor as control using Microfluor™ White Plates (Dynatech). The inhibitor or control solution was maintained in the plate for 10 minutes and the substrate was added to provide a final concentration of 4 μM.
(§6) In the absence of inhibitor activity, a fluorogenic peptide was cleaved at the gly-leu peptide bond, separating the highly fluorogenic peptide from a 2,4-dinitrophenyl quencher, resulting in an increase of fluorescence intensity (excitation at 328 nm/emission at 415 nm). Inhibition was measured as a reduction in fluorescent intensity as a function of inhibitor concentration, using a Perkin Elmer L550 plate reader. The IC50 values were calculated from those values. The results are set forth in the Inhibition Table below as Table 9, reported in terms of IC50.

hMMP-13 = target: T1, hMMP-13 (Homo sapiens, UniProt P45452); assay: as above; type: biochemical; conditions: recombinant human enzyme, APMA activated, room temperature, pH 7.5
T1 construct: made in house
Method: as §1
(§7) More specifically, recombinant human MMP-13 and MMP-1 enzymes were prepared in laboratories of the assignee. MMP-13 was expressed in baculovirus as a proenzyme, and purified first over a heparin agarose column and then over a chelating zinc chloride column. The proenzyme was activated by APMA for use in the assay. MMP-1 expressed in transfected HT-1080 cells was provided by Dr. Howard Welgus of Washington University, St. Louis, Mo. The enzyme was also activated using APMA and was then purified over a hydroxamic acid column.
as §2, §3, §4, §5, §6

hMMP-1 = target: T2, hMMP-1 (Homo sapiens, UniProt P03956); assay: as above; type: biochemical; conditions: recombinant human enzyme, APMA activated, room temperature, pH 7.5
T2 construct: made in house; host or cells: transfected HT-1080 cells (provided by Dr. Howard Welgus, Washington University)
T2 sequence (P03956 100-469): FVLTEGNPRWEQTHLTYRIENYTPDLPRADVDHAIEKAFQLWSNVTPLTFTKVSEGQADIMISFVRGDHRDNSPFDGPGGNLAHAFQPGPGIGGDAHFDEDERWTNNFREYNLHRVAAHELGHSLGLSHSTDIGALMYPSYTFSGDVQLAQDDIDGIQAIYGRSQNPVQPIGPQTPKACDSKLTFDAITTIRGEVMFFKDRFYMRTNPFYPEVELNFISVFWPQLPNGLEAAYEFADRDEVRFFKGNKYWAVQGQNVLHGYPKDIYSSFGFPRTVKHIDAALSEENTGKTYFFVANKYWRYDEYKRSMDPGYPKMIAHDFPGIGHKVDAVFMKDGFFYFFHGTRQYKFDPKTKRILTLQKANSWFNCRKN
Method: as §1, §7, §2, §3, §4, §5, §6

[1] = system: advanced, rapidly progressive, treatment-refractory solid tumor cancers; conditions: cited from earlier work
hMMP-3 = hMMP-3 (Homo sapiens, UniProt P08254); assay: In vitro metalloprotease inhibition, fluorogenic MCA peptide substrate; type: biochemical; conditions: room temperature, pH 7.5
Sequence of hMMP-3 (P08254 100-477): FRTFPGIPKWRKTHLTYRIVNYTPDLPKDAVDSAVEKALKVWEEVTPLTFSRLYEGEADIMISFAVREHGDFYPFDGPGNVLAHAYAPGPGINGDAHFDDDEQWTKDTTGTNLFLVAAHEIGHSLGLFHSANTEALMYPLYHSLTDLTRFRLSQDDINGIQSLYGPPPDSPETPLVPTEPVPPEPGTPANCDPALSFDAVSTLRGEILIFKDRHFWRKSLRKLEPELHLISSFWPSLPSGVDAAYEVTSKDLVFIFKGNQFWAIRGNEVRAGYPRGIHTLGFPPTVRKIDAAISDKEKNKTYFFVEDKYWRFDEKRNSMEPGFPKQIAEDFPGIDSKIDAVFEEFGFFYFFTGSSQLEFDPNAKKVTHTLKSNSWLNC
Method: as §1, §2, §3, §4, §5, §6

hMMP-8 = hMMP-8 (Homo sapiens, UniProt P22894); assay: as above; type: biochemical; conditions: room temperature, pH 7.5
Sequence of hMMP-8 (P22894 101-467): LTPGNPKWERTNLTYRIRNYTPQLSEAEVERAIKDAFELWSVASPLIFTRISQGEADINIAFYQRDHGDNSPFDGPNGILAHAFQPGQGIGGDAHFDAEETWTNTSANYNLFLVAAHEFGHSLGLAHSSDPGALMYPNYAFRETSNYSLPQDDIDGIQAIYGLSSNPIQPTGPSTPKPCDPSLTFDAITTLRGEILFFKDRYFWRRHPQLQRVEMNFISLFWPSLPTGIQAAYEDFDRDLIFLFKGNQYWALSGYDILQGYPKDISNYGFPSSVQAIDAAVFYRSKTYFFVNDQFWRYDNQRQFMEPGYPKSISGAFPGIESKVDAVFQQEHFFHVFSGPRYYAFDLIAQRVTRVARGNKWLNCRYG
Method: as §1, §2, §3, §4, §5, §6

hMMP-2 = target: T3, hMMP-2 (Homo sapiens, UniProt P08253); assay: as above; type: biochemical; conditions: room temperature, pH 7.5
T3 sequence (P08253 110-660): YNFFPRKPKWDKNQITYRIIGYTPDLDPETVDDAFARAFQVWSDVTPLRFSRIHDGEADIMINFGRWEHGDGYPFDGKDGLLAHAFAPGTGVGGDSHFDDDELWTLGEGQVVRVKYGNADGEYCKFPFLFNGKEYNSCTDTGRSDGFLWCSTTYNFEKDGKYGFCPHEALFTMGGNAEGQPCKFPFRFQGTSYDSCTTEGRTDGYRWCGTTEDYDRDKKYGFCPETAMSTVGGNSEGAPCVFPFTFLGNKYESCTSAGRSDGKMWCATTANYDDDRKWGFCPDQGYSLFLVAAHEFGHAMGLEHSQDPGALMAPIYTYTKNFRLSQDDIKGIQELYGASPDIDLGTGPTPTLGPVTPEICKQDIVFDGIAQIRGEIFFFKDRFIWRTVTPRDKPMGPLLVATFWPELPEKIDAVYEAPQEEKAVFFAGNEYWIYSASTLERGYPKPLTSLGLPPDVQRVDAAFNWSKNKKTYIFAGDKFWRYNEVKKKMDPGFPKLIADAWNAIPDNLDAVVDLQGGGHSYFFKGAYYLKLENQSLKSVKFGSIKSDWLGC
Method: as §1, §2, §3, §4, §5, §6

Sequence of hMMP-9 (P14780 107-707 limits assumed): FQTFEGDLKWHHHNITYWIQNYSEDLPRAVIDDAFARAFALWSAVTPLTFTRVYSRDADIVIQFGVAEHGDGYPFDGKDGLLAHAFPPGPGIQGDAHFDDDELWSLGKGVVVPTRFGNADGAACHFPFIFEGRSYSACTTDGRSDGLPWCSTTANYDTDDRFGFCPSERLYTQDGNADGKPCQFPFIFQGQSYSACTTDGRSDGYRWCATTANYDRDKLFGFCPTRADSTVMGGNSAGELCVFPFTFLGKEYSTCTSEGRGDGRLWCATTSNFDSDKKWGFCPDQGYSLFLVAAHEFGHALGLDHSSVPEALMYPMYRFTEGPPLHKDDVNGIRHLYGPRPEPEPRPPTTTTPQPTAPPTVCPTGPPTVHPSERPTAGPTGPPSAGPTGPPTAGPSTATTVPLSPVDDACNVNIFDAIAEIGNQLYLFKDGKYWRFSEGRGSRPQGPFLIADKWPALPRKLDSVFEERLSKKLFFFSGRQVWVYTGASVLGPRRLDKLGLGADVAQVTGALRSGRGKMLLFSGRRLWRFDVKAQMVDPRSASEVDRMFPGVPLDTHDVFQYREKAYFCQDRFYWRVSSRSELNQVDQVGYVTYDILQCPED

Row | IC50 (hMMP-9) [nM] | IC50 (hMMP-13) [nM] | IC50 (hMMP-1) [nM] | IC50 (hMMP-3) [nM] | IC50 (hMMP-8) [nM] | IC50 (hMMP-2) [nM] | SMILES | most common drug-related toxicity ([1]; clinical trials in patients) | effect on cancer-specific antigens used as surrogate markers for biological activity ([1]; patients with colorectal, pancreatic, ovarian, prostate cancers)
1 | 1.9 | 0.4 | 880 |  |  |  | CC(C)[C@H](C(=O)NO)N(CCN1CCOCC1)S(=O)(=O)c1ccc(NC(=O)c2ccc(Br)cc2)cc1 [Example 13] |  | 
2 | 24 | 0.5 | > 10000 | 225 | 39 | 0.1 | CCCc1ccc(C(=O)Nc2ccc(S(=O)(=O)N(Cc3cccnc3)[C@@H](C(=O)NO)C(C)C)cc2)cc1 [Example 11] |  | 
3 | 161 | < 0.1 | > 10000 | 30 | 34 | < 0.1 | CCCCCc1ccc(C(=O)Nc2ccc(S(=O)(=O)N[C@H](Cc3ccccc3)C(=O)NO)cc2)cc1 [Example 14] |  | 
4 | 286 | < 0.1 | > 10000 | 140 | 241 | < 0.1 | CCCCCc1ccc(C(=O)Nc2ccc(S(=O)(=O)N(CCN3CCOCC3)[C@H](Cc3ccccc3)C(=O)NO)cc2)cc1 [Example 15] |  | 
5 | 245 | 11.4 | 3400 | 800 | 12.3 |  | CC(C)[C@H](C(=O)NO)N(CCN1CCOCC1)S(=O)(=O)c1ccc(NC(=O)c2ccccc2)cc1 [Example 12] |  | 

Further lines, the compound ahead of its results:

Row | SMILES | IC50 (hMMP-9) [nM] | IC50 (hMMP-13) [nM] | IC50 (hMMP-1) [nM] | IC50 (hMMP-3) [nM] | IC50 (hMMP-8) [nM] | IC50 (hMMP-2) [nM] | most common drug-related toxicity ([1]; clinical trials in patients) | effect on cancer-specific antigens used as surrogate markers for biological activity ([1]; patients with colorectal, pancreatic, ovarian, prostate cancers)
6 | C[C@H](C(=O)NO)N(CCN1CCOCC1)S(=O)(=O)c1ccc(NC(=O)c2ccccc2)cc1 [Example 4] | 20 | 2.5 | > 10000 |  |  |  |  | 
7 | CNC(=O)[C@@H](NC(=O)[C@H](CC(C)C)[C@H](O)C(=O)NO)C(C)(C)C [marimastat] |  |  |  |  |  |  | musculoskeletal pain and stiffness | dose-related reduction in the rise of cancer-specific antigens
8 | CCCc1ccc(C(=O)Nc2ccc(S(=O)(=O)N(CCN3CCOCC3)[C@@H](C(=O)NO)C(C)C)cc2)cc1 [Example 7] | 4.5 | 0.3 | 4000 | 90 | 9 |  |  | 
9 | C[C@H](C(=O)NO)N(CCN1CCOCC1)S(=O)(=O)c1ccc(NC(=O)c2ccc(Br)cc2)cc1 [Example 5] |  | 0.35 | 4850 |  |  |  |  | 
10 | C[C@H](C(=O)NO)N(CCN1CCOCC1)S(=O)(=O)c1ccc(NC(=O)C2CCCCC2)cc1 [Example 6] | 3500 | 250 | > 10000 |  |  |  |  | 
11 | C[C@H](C(=O)NO)N(CCN1CCOCC1)S(=O)(=O)c1ccc(NC(=O)c2ccccc2)cc1 [Example 4a, (R)-N-[4-[[[2-(Hydroxyamino)-1-methyl-2-oxoethyl][2-4-morpholinyl)ethyl]amino]sulfonyl]phenyl]benzamide, Monohydrochloride] | 24 | 2.2 |  |  |  |  |  | 
12 | CCCCCc1ccc(C(=O)Nc2ccc(S(=O)(=O)N(CCN3CCOCC3)[C@@H](C(=O)NO)C(C)C)cc2)cc1 [Example 9] | 200 | < 0.1 | 4000 | 55 | 8 | < 0.1 |  | 
13 | CCCCc1ccc(C(=O)Nc2ccc(S(=O)(=O)N(CCN3CCOCC3)[C@@H](C(=O)NO)C(C)C)cc2)cc1 [Example 8] | 31 | 0.1 | 4000 | 50 | 25.8 |  |  | 
14 | CCCCCCc1ccc(C(=O)Nc2ccc(S(=O)(=O)N(CCN3CCOCC3)[C@@H](C(=O)NO)C(C)C)cc2)cc1 [Example 10a, (R)-4-Hexyl-N-[4-[[[1-(hydroxyamino)-carbonyl]-2-methylpropyl][2-(4-morpholinyl)ethyl]amino]sulfonyl]phenylbenzamide] |  |  |  | 180 | 2.6 | < 0.1 |  | 
15 | CCCCCCc1ccc(C(=O)Nc2ccc(S(=O)(=O)N(CCN3CCOCC3)[C@@H](C(=O)NO)C(C)C)cc2)cc1 [Example 10] | 350 | < 0.1 | 5600 |  |  |  |  | 
